From ChEMBL document CHEMBL1127517 (J Med Chem, 1994)

Key:
Rattus norvegicus [1] = experiment: Distribution of radio activity in tissues of unfasted male rats was measured at 60 min of time in blood after intravenous administration; format: ADME, organism-based; conditions: in vivo, 1 h
Rattus norvegicus [2] = experiment: Distribution of radio activity in tissues of unfasted male rats was measured at 60 min of time in brain after intravenous administration; format: ADME, organism-based; conditions: in vivo, 1 h
Rattus norvegicus [3] = experiment: Distribution of radio activity in tissues of unfasted male rats was measured at 60 min of time in heart after intravenous administration; format: ADME, organism-based; conditions: in vivo, 1 h
Rattus norvegicus [4] = experiment: Distribution of radio activity in tissues of unfasted male rats was measured at 60 min of time in kidney after intravenous administration; format: ADME, organism-based; conditions: in vivo, 1 h
Rattus norvegicus [5] = experiment: Distribution of radio activity in tissues of unfasted male rats was measured at 60 min of time in liver after intravenous administration; format: ADME, organism-based; conditions: in vivo, 1 h
Rattus norvegicus [6] = experiment: Distribution of radio activity in tissues of unfasted male rats was measured at 60 min of time in lung after intravenous administration; format: ADME, organism-based; conditions: in vivo, 1 h
Rattus norvegicus [7] = experiment: Distribution of radio activity in tissues of unfasted male rats was measured at 60 min of time in muscle after intravenous administration; format: ADME, organism-based, Muscle tissue; conditions: in vivo, 1 h
Rattus norvegicus [8] = experiment: Distribution of radio activity in tissues of unfasted male rats was measured at 2 min of time in thyroid after intravenous administration; format: ADME, organism-based, Thyroid gland; conditions: in vivo
Rattus norvegicus [9] = experiment: Distribution of radio activity in tissues of unfasted male rats was measured at 30 min of time in blood after intravenous administration; format: ADME, organism-based; conditions: in vivo, 0.5 h
Rattus norvegicus [10] = experiment: Distribution of radio activity in tissues of unfasted male rats was measured at 30 min of time in brain after intravenous administration; format: ADME, organism-based; conditions: in vivo, 0.5 h
Rattus norvegicus [11] = experiment: Distribution of radio activity in tissues of unfasted male rats was measured at 30 min of time in heart after intravenous administration; format: ADME, organism-based; conditions: in vivo, 0.5 h
Rattus norvegicus [12] = experiment: Distribution of radio activity in tissues of unfasted male rats was measured at 60 min of time in skin after intravenous administration; format: ADME, organism-based; conditions: in vivo, 1 h
Rattus norvegicus [13] = experiment: Distribution of radio activity in tissues of unfasted male rats was measured at 60 min of time in spleen after intravenous administration; format: ADME, organism-based; conditions: in vivo, 1 h
Rattus norvegicus [14] = experiment: Distribution of radio activity in tissues of unfasted male rats was measured at 60 min of time in thyroid after intravenous administration; format: ADME, organism-based, Thyroid gland; conditions: in vivo, 1 h
Rattus norvegicus [15] = experiment: Distribution of radio activity in tissues of unfasted male rats was measured as regional uptake at 120 min of time in cortex after intravenous administration; format: ADME, organism-based; conditions: in vivo, 2 h
Rattus norvegicus [16] = experiment: Distribution of radio activity in tissues of unfasted male rats was measured as regional uptake at 120 min of time in hippocampus after intravenous administration; format: ADME, organism-based; conditions: in vivo, 2 h
Rattus norvegicus [17] = experiment: Distribution of radio activity in tissues of unfasted male rats was measured as regional uptake at 120 min of time in striatum after intravenous administration; format: ADME, organism-based; conditions: in vivo, 2 h
Rattus norvegicus [18] = experiment: Distribution of radio activity in tissues of unfasted male rats was measured as regional uptake at 2 min of time in ST/CB after intravenous administration; format: ADME, organism-based; conditions: in vivo
Rattus norvegicus [19] = experiment: Distribution of radio activity in tissues of unfasted male rats was measured as regional uptake at 2 min of time in cerebellum after intravenous administration; format: ADME, organism-based; conditions: in vivo
Rattus norvegicus [20] = experiment: Distribution of radio activity in tissues of unfasted male rats was measured as regional uptake at 2 min of time in cortex after intravenous administration; format: ADME, organism-based; conditions: in vivo
Rattus norvegicus [21] = experiment: Distribution of radio activity in tissues of unfasted male rats was measured as regional uptake at 2 min of time in hippocampus after intravenous administration; format: ADME, organism-based; conditions: in vivo
Rattus norvegicus [22] = experiment: Distribution of radio activity in tissues of unfasted male rats was measured as regional uptake at 2 min of time in striatum after intravenous administration; format: ADME, organism-based; conditions: in vivo
Rattus norvegicus [23] = experiment: Distribution of radio activity in tissues of unfasted male rats was measured as regional uptake at 30 min of time in ST/CB after intravenous administration; format: ADME, organism-based; conditions: in vivo, 0.5 h
Rattus norvegicus [24] = experiment: Distribution of radio activity in tissues of unfasted male rats was measured as regional uptake at 30 min of time in cerebellum after intravenous administration; format: ADME, organism-based; conditions: in vivo, 0.5 h
Rattus norvegicus [25] = experiment: Distribution of radio activity in tissues of unfasted male rats was measured as regional uptake at 30 min of time in cortex after intravenous administration; format: ADME, organism-based; conditions: in vivo, 0.5 h
Rattus norvegicus [26] = experiment: Distribution of radio activity in tissues of unfasted male rats was measured as regional uptake at 30 min of time in hippocampus after intravenous administration; format: ADME, organism-based; conditions: in vivo, 0.5 h
Rattus norvegicus [27] = experiment: Distribution of radio activity in tissues of unfasted male rats was measured as regional uptake at 30 min of time in striatum after intravenous administration; format: ADME, organism-based; conditions: in vivo, 0.5 h
Rattus norvegicus [28] = experiment: Distribution of radio activity in tissues of unfasted male rats was measured as regional uptake at 60 min of time in ST/CB after intravenous administration; format: ADME, organism-based; conditions: in vivo, 1 h
Rattus norvegicus [29] = experiment: Distribution of radio activity in tissues of unfasted male rats was measured as regional uptake at 60 min of time in cerebellum after intravenous administration; format: ADME, organism-based; conditions: in vivo, 1 h
Rattus norvegicus [30] = experiment: Distribution of radio activity in tissues of unfasted male rats was measured at 2 min of time in spleen after intravenous administration; format: ADME, organism-based; conditions: in vivo
Rattus norvegicus [31] = experiment: Distribution of radio activity in tissues of unfasted male rats was measured at 2 min of time in liver after intravenous administration; format: ADME, organism-based; conditions: in vivo

`COC(=O)C1C(c2ccc(Cl)cc2)CC2CCC1N2C/C=C\I` (stereo unspecified) was tested, and the Injected dose/organ (Rattus norvegicus [1]) was 5.77%, the Injected dose/organ (Rattus norvegicus [2]) was 0.07% and the Injected dose/organ (Rattus norvegicus [3]) was 0.16%. For the same compound, the Injected dose/organ (Rattus norvegicus [4]) was 0.56%, the Injected dose/organ (Rattus norvegicus [5]) was 1.6% and the Injected dose/organ (Rattus norvegicus [6]) was 0.5%. The Injected dose/organ (Rattus norvegicus [7]) was 12.22%, the Injected dose/organ (Rattus norvegicus [8]) was 0.08% and the Injected dose/organ (Rattus norvegicus [9]) was 8%. The Injected dose/organ (Rattus norvegicus [10]) was 0.21%, the Injected dose/organ (Rattus norvegicus [11]) was 0.22% and the Injected dose/organ (Rattus norvegicus [12]) was 24.81%. For the same compound, the Injected dose/organ (Rattus norvegicus [13]) was 0.11%, the Injected dose/organ (Rattus norvegicus [14]) was 0.94% and the Dose/g (Rattus norvegicus [15]) was 0.03%. It also gave a Dose/g (Rattus norvegicus [16]) of 0.03%, a Dose/g (Rattus norvegicus [17]) of 0.05% and a Dose/g (Rattus norvegicus [18]) of 1.12%. It also gave a Dose/g (Rattus norvegicus [19]) of 0.82%, a Dose/g (Rattus norvegicus [20]) of 0.91% and a Dose/g (Rattus norvegicus [21]) of 0.69%. It also gave a Dose/g (Rattus norvegicus [22]) of 0.92%, a Dose/g (Rattus norvegicus [23]) of 3% and a Dose/g (Rattus norvegicus [24]) of 0.19%. It also gave a Dose/g (Rattus norvegicus [25]) of 0.11%, a Dose/g (Rattus norvegicus [26]) of 0.12% and a Dose/g (Rattus norvegicus [27]) of 0.33%. The Dose/g (Rattus norvegicus [28]) was 2.7%, the Dose/g (Rattus norvegicus [29]) was 0.04% and the Injected dose/organ (Rattus norvegicus [30]) was 0.4%. The Injected dose/organ (Rattus norvegicus [31]) was 12.13%.
